What was measured:
Assay type in all cases: biochemical
[1] = molecular target: T1, HDAC6 enzyme (Homo sapiens, UniProt Q9UBN7); experiment: HDAC1/6 Enzyme Inhibitory Assay (HDAC-Glo I/II Assay kit), HDAC6; conditions: 1 μM test compound; wells without enzyme = 100% inhibition; read-out: HDAC6 inhibitory rate (%) (1 μM)
T1 construct: transducing full length HDAC1 and HDAC6 genes into Sf-9 insect cells; GST; purchased SignalChem; host or cells: Sf-9 insect cells
T1 sequence (Q9UBN7 1-1215): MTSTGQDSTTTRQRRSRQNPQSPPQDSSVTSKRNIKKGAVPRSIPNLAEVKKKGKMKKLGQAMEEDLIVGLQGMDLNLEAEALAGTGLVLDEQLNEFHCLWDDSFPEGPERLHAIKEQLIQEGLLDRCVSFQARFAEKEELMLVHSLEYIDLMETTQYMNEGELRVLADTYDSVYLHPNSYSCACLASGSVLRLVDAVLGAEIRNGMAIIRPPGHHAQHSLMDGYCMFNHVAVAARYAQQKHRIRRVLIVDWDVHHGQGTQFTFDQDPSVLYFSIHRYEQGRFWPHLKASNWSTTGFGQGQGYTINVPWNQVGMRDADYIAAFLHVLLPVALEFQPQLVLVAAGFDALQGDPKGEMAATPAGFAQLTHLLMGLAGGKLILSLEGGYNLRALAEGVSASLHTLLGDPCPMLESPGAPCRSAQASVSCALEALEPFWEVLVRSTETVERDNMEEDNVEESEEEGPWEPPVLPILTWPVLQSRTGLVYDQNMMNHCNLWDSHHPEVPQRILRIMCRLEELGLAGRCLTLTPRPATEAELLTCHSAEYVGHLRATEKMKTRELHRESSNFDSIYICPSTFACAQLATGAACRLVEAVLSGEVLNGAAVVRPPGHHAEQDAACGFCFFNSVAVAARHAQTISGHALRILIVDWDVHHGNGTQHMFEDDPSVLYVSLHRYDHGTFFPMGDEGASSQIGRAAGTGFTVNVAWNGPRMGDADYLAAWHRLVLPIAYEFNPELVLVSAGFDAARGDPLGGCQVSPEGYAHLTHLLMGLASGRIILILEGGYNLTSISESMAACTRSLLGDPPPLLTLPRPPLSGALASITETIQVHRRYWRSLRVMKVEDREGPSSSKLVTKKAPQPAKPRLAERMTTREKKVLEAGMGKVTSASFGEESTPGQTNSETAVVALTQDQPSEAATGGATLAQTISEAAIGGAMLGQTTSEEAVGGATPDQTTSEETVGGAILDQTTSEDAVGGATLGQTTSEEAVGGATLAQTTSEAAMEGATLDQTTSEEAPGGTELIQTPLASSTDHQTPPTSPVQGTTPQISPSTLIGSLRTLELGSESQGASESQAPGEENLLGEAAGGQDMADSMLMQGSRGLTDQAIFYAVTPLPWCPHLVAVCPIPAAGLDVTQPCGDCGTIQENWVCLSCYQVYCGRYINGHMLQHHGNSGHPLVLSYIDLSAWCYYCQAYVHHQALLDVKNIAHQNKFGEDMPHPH
Protocol: (§1) HDAC1/6 Enzyme Inhibitory Assay
(§2) HDAC1 enzyme and HDAC6 enzyme each prepared by transducing full length HDAC1 and HDAC6 genes into Sf-9 insect cells and purifying by GST affinity column were purchased from SignalChem. Using these enzymes, HDAC1 and/or HDAC6 enzyme inhibitory activities of the compound of the present invention were evaluated. Enzymes were used after preserved at −70° C. HDAC1 or HDAC6 enzyme inhibitory activity of the compound of the present invention was measured using HDAC-Glo™ I/II Assay kit (Promega) according to the following experimental method. The test compound diluted with assay buffer (24 mM Tris-HCl (pH 7.5), 1 mM MgCl2, 0.35 mM KCl, 135 mM NaCl, 0.6 mM Glutathione, 0.01% Tween-20) was added to a 384-well plate by each 2 μL. Then, HDAC1 or HDAC6 enzyme solution diluted with assay buffer was added thereto by each 4 μL, and the plate was incubated at room temperature for 60 min. After incubated, HDAC substrate-Developer solution prepared according to Promega protocol attached to the assay kit was added to the 384-well plate by each 2 μL, and the enzyme reaction was started. After reacting at room temperature for 20 min, luminescence level was measured using plate reader Envision (PerkinElmer). The inhibitory activity of each compound was calculated as a relative activity value when luminescence level in wells without enzyme is considered as 100% inhibition.

[2] = molecular target: T2, HDAC1 enzyme (Homo sapiens, UniProt Q13547); experiment: HDAC1/6 Enzyme Inhibitory Assay (HDAC-Glo I/II Assay kit), HDAC1; conditions: 1 μM test compound; wells without enzyme = 100% inhibition; read-out: HDAC1 inhibitory rate (%) (1 μM)
T2 construct: transducing full length HDAC1 and HDAC6 genes into Sf-9 insect cells; GST; purchased SignalChem; host or cells: Sf-9 insect cells
T2 sequence (Q13547 whole entry): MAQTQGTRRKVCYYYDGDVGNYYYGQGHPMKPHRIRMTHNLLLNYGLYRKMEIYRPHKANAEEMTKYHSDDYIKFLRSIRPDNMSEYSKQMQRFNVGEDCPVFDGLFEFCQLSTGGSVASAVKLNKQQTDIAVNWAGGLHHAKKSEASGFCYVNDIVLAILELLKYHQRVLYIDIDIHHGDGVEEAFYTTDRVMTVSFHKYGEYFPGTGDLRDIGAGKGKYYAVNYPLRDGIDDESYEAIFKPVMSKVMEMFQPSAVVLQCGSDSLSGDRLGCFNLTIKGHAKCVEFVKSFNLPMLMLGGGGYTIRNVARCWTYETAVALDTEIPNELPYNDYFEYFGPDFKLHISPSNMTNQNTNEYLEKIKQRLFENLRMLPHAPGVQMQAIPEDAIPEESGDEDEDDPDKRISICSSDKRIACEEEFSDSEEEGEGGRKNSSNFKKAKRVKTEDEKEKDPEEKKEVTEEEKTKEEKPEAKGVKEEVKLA
Protocol: as §1, §2

[3] = molecular target: T3, HDAC9 enzyme (Homo sapiens, UniProt Q9UKV0); experiment: HDAC9 Enzyme Inhibitory Assay (HDAC-Glo class IIa); conditions: 1 μM test compound; wells without enzyme = 100% inhibition; read-out: HDAC9 inhibitory rate (%) (1 μM)
T3 construct: transducing full length HDAC9 gene into Sf-9 insect cells; made in house; host or cells: Sf-9 insect cells
T3 sequence (Q9UKV0 whole entry, species assumed): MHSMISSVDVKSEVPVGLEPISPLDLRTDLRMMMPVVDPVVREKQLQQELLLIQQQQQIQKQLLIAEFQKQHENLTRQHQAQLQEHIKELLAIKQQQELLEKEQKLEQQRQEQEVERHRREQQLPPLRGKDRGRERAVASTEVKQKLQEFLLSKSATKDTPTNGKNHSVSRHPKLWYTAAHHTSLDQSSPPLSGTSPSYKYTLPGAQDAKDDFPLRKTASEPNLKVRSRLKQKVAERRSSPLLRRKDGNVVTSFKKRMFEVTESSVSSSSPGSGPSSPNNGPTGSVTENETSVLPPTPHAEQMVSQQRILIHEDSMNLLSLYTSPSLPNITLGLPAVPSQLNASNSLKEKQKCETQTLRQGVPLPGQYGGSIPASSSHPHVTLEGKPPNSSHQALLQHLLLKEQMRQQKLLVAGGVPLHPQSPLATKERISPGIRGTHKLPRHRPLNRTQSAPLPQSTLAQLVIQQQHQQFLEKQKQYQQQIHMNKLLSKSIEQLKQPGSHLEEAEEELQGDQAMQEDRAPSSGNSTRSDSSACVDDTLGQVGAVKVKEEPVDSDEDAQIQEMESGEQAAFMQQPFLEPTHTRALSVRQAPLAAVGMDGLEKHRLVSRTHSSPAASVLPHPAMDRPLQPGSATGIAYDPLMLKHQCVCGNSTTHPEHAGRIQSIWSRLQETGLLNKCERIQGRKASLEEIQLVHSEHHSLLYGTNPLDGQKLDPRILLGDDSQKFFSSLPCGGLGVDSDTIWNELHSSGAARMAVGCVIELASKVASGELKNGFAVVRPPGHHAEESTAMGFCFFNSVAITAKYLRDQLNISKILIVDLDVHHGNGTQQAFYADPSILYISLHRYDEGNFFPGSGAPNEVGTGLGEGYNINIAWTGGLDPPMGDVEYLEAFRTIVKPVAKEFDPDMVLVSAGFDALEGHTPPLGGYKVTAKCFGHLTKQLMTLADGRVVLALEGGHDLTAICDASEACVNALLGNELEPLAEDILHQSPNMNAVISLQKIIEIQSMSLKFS
Protocol: HDAC9 Enzyme Inhibitory Assay
Enzyme was prepared by transducing full length HDAC9 gene into Sf-9 insect cells and purifying by Ni-NTA affinity column, and HDAC9 enzyme inhibitory activity was evaluated. Enzymes were used after preserved at −70° C. HDAC9 enzyme inhibitory activity of the test compound was measured using HDAC-Glo class IIa (Promega) according to the following experimental method. The test compound diluted with assay buffer (24 mM Tris-HCl (pH 7.5), 1 mM MgCl2, 0.35 mM KCl, 135 mM NaCl, 0.6 mM Glutathione, 0.01% Tween-20) was added to a 384-well plate by each 2 μL. Then, HDAC9 enzyme solution diluted with assay buffer was added thereto by each 2 μL, and the plate was incubated at room temperature for 60 min. After incubated, HDAC substrate-Developer solution prepared according to Promega protocol was added to the 384-well plate by each 4 μL, and the enzyme reaction was started. After reacting at room temperature for 20 min, luminescence level was measured using plate reader Envision (PerkinElmer). The inhibitory activity of each compound was calculated as a relative activity value when luminescence level in wells without enzyme is considered as 100% inhibition.

| SMILES | inhibition at 1 µM [1] [%] | inhibition at 1 µM [2] [%] | inhibition at 1 µM [3] [%] |
| --- | --- | --- | --- |
| O=C1c2cc(-c3noc(C(F)(F)F)n3)ccc2CN1[C@@H]1CC[C@@H]1Cc1ccccc1 (relative stereo) [Example 60, 2-(cis-2-benzylcyclobutyl)-6-(5-(trifluoromethyl)-1,2,4-oxadiazol-3-yl)isoindolin-1-one] | 92 | 37 | 77 |
| O=C1c2cc(-c3noc(C(F)(F)F)n3)ccc2CN1[C@H]1C[C@@H]1c1ccccc1 (relative stereo) [Example 66, 2-(trans-2-phenylcyclopropyl)-6-(5-(trifluoromethyl)-1,2,4-oxadiazol-3-yl)isoindolin-1-one] | 90 | 17 | 54 |
| CC(C)(C)OC(=O)N1CC[C@@H](c2ccccc2)[C@H](N2Cc3cc(-c4noc(C(F)(F)F)n4)ccc3C2=O)C1 (relative stereo) [Example 71, tert-butyl trans-3-(1-oxo-5-(5-(trifluoromethyl)-1,2,4-oxadiazol-3-yl)-1,3-dihydro-2H-isoindol-2-yl)-4-phenylpiperidine-1-carboxylate] | 36 | 9 | 73 |
| O=C1c2ccc(-c3noc(C(F)(F)F)n3)cc2CN1[C@@H]1CNCC[C@H]1c1ccccc1 (relative stereo) [Example 72, trans-2-(4-phenylpiperidin-3-yl)-5-(5-(trifluoromethyl)-1,2,4-oxadiazol-3-yl)isoindolin-1-one] | 90 | 32 | 80 |
| CC(=O)N1CC[C@@H](c2ccccc2)[C@H](N2Cc3cc(-c4noc(C(F)(F)F)n4)ccc3C2=O)C1 (relative stereo) [Example 73, trans-2-(1-acetyl-4-phenylpiperidin-3-yl)-5-(5-(trifluoromethyl)-1,2,4-oxadiazol-3-yl)isoindolin-1-one] | 77 | 19 | 81 |
| CC(C)(C)OC(=O)N1CC[C@H](N2Cc3cc(-c4noc(C(F)(F)F)n4)ccc3C2=O)[C@H](c2ccccc2)C1 (relative stereo) [Example 78, tert-butyl cis-4-(1-oxo-5-(5-(trifluoromethyl)-1,2,4-oxadiazol-3-yl)-1,3-dihydro-2H-isoindol-2-yl)-3-phenylpiperidine-1-carboxylate] | 11 | -3 | 76 |
| O=C1c2ccc(-c3noc(C(F)(F)F)n3)cc2CN1[C@H]1CCNC[C@H]1c1ccccc1 (relative stereo) [Example 79, cis-2-(3-phenylpiperidin-4-yl)-5-(5-(trifluoromethyl)-1,2,4-oxadiazol-3-yl)isoindolin-1-one] | 78 | 17 | 88 |
| CC(=O)N1CC[C@H](N2Cc3cc(-c4noc(C(F)(F)F)n4)ccc3C2=O)[C@H](c2ccccc2)C1 (relative stereo) [Example 80, cis-2-(1-acetyl-3-phenylpiperidin-4-yl)-5-(5-(trifluoromethyl)-1,2,4-oxadiazol-3-yl)isoindolin-1-one] | 76 | 13 | 97 |
| CC(C)(C)OC(=O)N1CC[C@@H](N2Cc3cc(-c4noc(C(F)(F)F)n4)ccc3C2=O)[C@H](c2ccccc2)C1 (relative stereo) [Example 135, tert-butyl-trans-4-(1-oxo-5-(5-(trifluoromethyl)-1,2,4-oxadiazol-3-yl)-1,3-dihydro-2H-isoindol-2-yl)-3-phenylpiperidine-1-carboxylate] | 40 | -5 | 58 |
| O=C1c2ccc(-c3noc(C(F)(F)F)n3)cc2CN1[C@@H]1CCNC[C@H]1c1ccccc1 (relative stereo) [Example 136, trans-2-(3-phenylpiperidin-4-yl)-5-(5-(trifluoromethyl)-1,2,4-oxadiazol-3-yl)isoindolin-1-one] | 94 | 39 | 82 |
| CC(=O)N1CC[C@@H](N2Cc3cc(-c4noc(C(F)(F)F)n4)ccc3C2=O)[C@H](c2ccccc2)C1 (relative stereo) [Example 137, trans-2-(1-acetyl-3-phenylpiperidin-4-yl)-5-(5-(trifluoromethyl)-1,2,4-oxadiazol-3-yl)isoindolin-1-one] | 89 | 25 | 94 |
| CC(C)(C)OC(=O)N[C@@H]1CCCC[C@@H]1N1Cc2ccc(-c3noc(C(F)(F)F)n3)cc2C1=O (relative stereo) [Example 198, tert-butyl (cis-2-(1-oxo-6-(5-(trifluoromethyl)-1,2,4-oxadiazol-3-yl)-1,3-dihydro-2H-isoindol-2-yl)cyclohexyl)carbamate] | 95 | 26 | 66 |
| N[C@H]1CCCC[C@H]1N1Cc2ccc(-c3noc(C(F)(F)F)n3)cc2C1=O (relative stereo) [Example 199, 2-(cis-2-aminocyclohexyl)-6-(5-(trifluoromethyl)-1,2,4-oxadiazol-3-yl)isoindolin-1-one] | 68 | 5 | 75 |
| CC1(C(=O)N[C@@H]2CCCC[C@@H]2N2Cc3ccc(-c4noc(C(F)(F)F)n4)cc3C2=O)COC1 (relative stereo) [Example 200, 3-methyl-N-(cis-2-(1-oxo-6-(5-(trifluoromethyl)-1,2,4-oxadiazol-3-yl)-1,3-dihydro-2H-isoindol-2-yl)cyclohexyl)oxetane-3-carboxamide] | 96 | 35 | 85 |
| CC(CO)(CCl)C(=O)N[C@@H]1CCCC[C@H]1N1Cc2ccc(-c3noc(C(F)(F)F)n3)cc2C1=O (relative stereo) [Example 203, 3-chloro-2-(hydroxymethyl)-2-methyl-N-(trans-2-(1-oxo-6-(5-(trifluoromethyl)-1,2,4-oxadiazol-3-yl)-1,3-dihydro-2H-isoindol-2-yl)cyclohexyl)propanamide] | 100 | 8 | 69 |

From patent publication US10308643B2, “Heterocyclic compound” (Takeda Pharmaceutical Company Limited, priority 2015, dated 2019)
